Measurements as given in the supplement of paper PMC10933113.
Structures can show the parent of a compound that is named as a salt. ± gives the uncertainty stated by the source.

Experiments:
[1] = system: KeratinoSens (HaCaT ARE-luciferase) cells; test: AC50 of Nrf2/ARE luciferase induction; higher = less potent; details: exposure time: 24 h
[2] = system: KeratinoSens (HaCaT ARE-luciferase) cells; test: cytotoxicity AC50 (CellTiter-Fluor viability); higher = less cytotoxic; details: exposure time: 24 h
[3] = system: THP-1; test: efficacy of IL-8 induction relative to DMSO (% activity); higher = stronger induction; details: exposure time: 18 h
[4] = system: lysine peptide Ac-RFAAKAA-COOH; test: efficacy of lysine peptide change (negative = depletion) (% activity); higher = less depletion; details: incubation time: 24 h
[5] = system: cysteine peptide Ac-RFAACAA-COOH; test: efficacy of cysteine peptide change (negative = depletion) (% activity); higher = less depletion; details: incubation time: 24 h
[6] = system: KeratinoSens (HaCaT ARE-luciferase) cells; test: efficacy of ARE luciferase induction relative to DMSO (% activity over DMSO); higher = stronger induction; details: exposure time: 24 h
[7] = system: cysteine peptide Ac-RFAACAA-COOH; test: AC50 of cysteine peptide concentration-response (direction given by sign of efficacy); higher = less potent; details: incubation time: 24 h

| Compound | AC50 of Nrf2/ARE luciferase induction [1] [µM] | cytotoxicity AC50 [2] [µM] | efficacy of IL-8 induction [3] | efficacy of lysine peptide change [4] | efficacy of cysteine peptide change [5] | efficacy of ARE luciferase induction [6] | AC50 [7] [µM] |
| --- | --- | --- | --- | --- | --- | --- | --- |
| C[C@]12CC[C@H](O)C[C@H]1CC[C@@H]1[C@@H]2C[C@@H](O)[C@]2(C)[C@@H](C3=CC(=O)OC3)CC[C@]12O [Digoxigenin] | 5.7 | 4.65 ± 1.6 | 21.1 ± 4.1 | 68.2 ± 22 | 2.17 ± 3.8 | 600 ± 260 | – |
| O=C(Nc1ncc([N+](=O)[O-])s1)c1cccs1 [Tenonitrozole] | 8.8 | 12.7 ± 2 | 6.75 ± 5.9 | 33.7 ± 8.7 | -93.3 ± 27 | 27.5 ± 48 | 96.8 ± 13 |
| CC(C)(C)c1cc(O)c(C(C)(C)C)cc1O [2,5-Di-tert-butylbenzene-1,4-diol] | 42.1 | 34.2 ± 2.2 | 40.9 ± 4.8 | -4 ± 6.9 | -80.8 ± 14 | 175 ± 86 | 85.9 ± 5.6 |
| C/C=C/C=C/CCCCCCCO [Codlelure] | 73.7 | 44.9 ± 5.2 | 8.57 ± 7.8 | 20.6 ± 4.8 | -104 ± 14 | 1300 ± 400 | 28.6 ± 15 |
| CN1C[C@H](C(=O)N[C@]2(C)O[C@@]3(O)[C@@H]4CCCN4C(=O)[C@H](Cc4ccccc4)N3C2=O)C=C2c3cccc4[nH]cc(c34)C[C@H]21 [Ergotamine D-tartrate*] | 23.1 | – | 15.3 ± 4.1 | 14.3 ± 3.5 | -98.5 ± 6.4 | 61.1 ± 17 | 11.4 ± 2.6 |
| Cl/C=C\C[N+]12CN3CN(CN(C3)C1)C2 [Chloroallyl methenamine chloride] | 73.7 | – | 6.91 ± 6.8 | -14.5 ± 14 | -102 ± 6.1 | 1290 ± 60 | 19.6 ± 4.8 |
| CN(C)c1ccc(N)cc1 [N,N-Dimethyl-p-phenylenediamine] | 17.1 | – | 21 ± 7.2 | -17.1 ± 8.3 | -130 ± 19 | 84.5 ± 29 | 8.18 ± 2.3 |
| Oc1ccc2ccccc2c1N=Nc1ccccc1 [C.I. Solvent Yellow 14] | 28.2 | – | 5.32 ± 9.2 | -31.1 ± 6.5 | -94.7 ± 4 | 49.8 ± 19 | 10.8 ± 3.5 |
| NNC(N)=S [Thiosemicarbazide] | 15.8 | 28.3 ± 3.2 | 35.8 ± 29 | 9.67 ± 17 | -40.9 ± 11 | 64.8 ± 15 | – |
| O=C1OC(CCN2CCCCC2)OC1(c1ccccc1)c1ccccc1 (stereo not given) [Pipoxolan hydrochloride] | 20.7 | 33.5 ± 2.7 | 0 | -49.6 ± 25 | -104 ± 2.6 | 107 ± 83 | 4.43 ± 1.9 |
| O=C(CCCCCCC(=O)Nc1ccccc1)NO [Vorinostat (SAHA)] | 11.7 | 11.4 ± 2.1 | 7.76 ± 8.9 | 11.4 ± 21 | 0 | 597 ± 130 | – |
| [CH3][Hg][Cl] [Methyl mercuric (II) chloride] | 3.98 | 6.57 ± 0.44 | 73.6 ± 0.91 | 0 | -97.5 ± 1.4 | 188 ± 110 | 46.5 ± 3.1 |
| COc1cccc2c1C(=O)c1c(O)c3c(c(O)c1C2=O)C[C@@](O)(C(=O)CO)C[C@@H]3O[C@H]1C[C@H](N)[C@H](O[C@@H]2CCCCO2)[C@H](C)O1 [Pirarubicin*] | 20.5 | 17.9 ± 6.5 | 21.1 ± 6.6 | -33.9 ± 4.4 | -101 ± 3.8 | 638 ± 360 | 3.01 ± 1.5 |
| Cc1c(C)n(CCN(C)C)c2ccc(C(=O)OCCN(C)C)cc12 [Amindocate] | 29.8 | 28.3 ± 9.3 | -1.77 ± 3.1 | 58.5 ± 9.6 | 9.57 ± 11 | 96.2 ± 38 | – |
| O=C(O)Cc1cc(I)c(Oc2cc(I)c(O)c(I)c2)c(I)c1 [Tetrac] | 43.1 | – | 0 | 6.09 ± 18 | -91.9 ± 9.5 | 377 ± 69 | 33.5 ± 7.5 |
| COc1cccc2c1C(=O)c1c(O)c3c(c(O)c1C2=O)C[C@@](O)(C(=O)CO)C[C@@H]3O[C@H]1C[C@H](N)[C@H](O)[C@H](C)O1 [Doxorubicin*] | 7.94 | 11.3 ± 1.3 | 31.2 ± 4.9 | -21.7 ± 10 | -92.2 ± 5 | 860 ± 140 | 0.9 ± 0.1 |
| [Cl][Bi]([Cl])([c]1ccccc1)([c]1ccccc1)[c]1ccccc1 [Triphenylbismuthine dichloride] | 14.2 | 28.2 | 92.2 ± 110 | 23.5 ± 22 | -96.9 ± 5.6 | 95.5 ± 39 | 0.85 ± 0.38 |
| C=C1CC[C@H](O)C/C1=C/C=C1\CCC[C@]2(C)[C@@H]([C@H](C)/C=C/[C@H](C)C(C)C)CC[C@@H]12 [Ergocalciferol*] | 34.2 | – | 20.2 ± 3.7 | -20.5 ± 4.3 | -99.4 ± 8.8 | 78.7 ± 43 | 28.3 ± 9.3 |
| c1ccc2c(c1)OCC(C1=NCCN1)O2 (stereo not given) [Idazoxan] | 12.6 | 22.4 | 12.4 ± 3.5 | -1.64 ± 20 | -124 ± 14 | 39.9 ± 3.1 | 27.3 ± 3.8 |
| C=CC(=O)OCCCCCCOC(=O)C=C [1,6-Hexanediol diacrylate] | 35.5 | 43 ± 2.8 | 9.97 ± 9.4 | 9.01 ± 17 | -106 ± 3.3 | 343 ± 90 | 50.1 |
| COP(=O)(OC)O/C(=C\Cl)c1cc(Cl)c(Cl)cc1Cl [Z-Tetrachlorvinphos] | 41.8 | 53.6 ± 16 | 1.71 ± 3 | 75.2 ± 24 | 4.88 ± 8.5 | 72.1 ± 13 | – |
| CCN(CC)CCOc1ccc2c(c1)C(=O)c1cc(OCCN(CC)CC)ccc1-2 [Tilorone] | 22.1 | 12.6 ± 1.4 | 27.2 ± 3.2 | 81.7 ± 28 | -43 ± 15 | 293 ± 85 | – |
| CCCSS/C(CCO)=C(/C)N(C=O)Cc1cnc(C)nc1N [Prosultiamine] | 15.8 | 26.1 ± 1.8 | 30.5 ± 12 | 154 ± 29 | -112 ± 9.3 | 433 ± 21 | 1.59 ± 0.18 |
| [Cl][Cd][Cl] [Cadmium II chloride] | 18.9 | 37.3 ± 6.7 | 19.4 ± 2.2 | 4.14 ± 11 | 11.2 ± 30 | 146 ± 94 | – |
| CC/C=C\C/C=C\C/C=C\CCCCCCCC(=O)OCC [Ethyl linolenate] | 18.4 | 32.9 ± 2.2 | 14.7 ± 5.5 | -51.8 ± 5.7 | -100 ± 11 | 95.1 ± 71 | 9.27 ± 3.2 |
| C[C@@H]1O[C@@H](O[C@@H]2C=C3CC[C@@H]4[C@H](CC[C@]5(C)[C@@H](c6ccc(=O)oc6)CC[C@]45O)[C@@]3(C)CC2)[C@H](O)[C@H](O)[C@H]1O [Proscillaridin] | 0.27 | 0.51 ± 0.11 | 38.2 ± 14 | 14.3 ± 11 | 2.01 ± 3.5 | 246 ± 170 | – |
| COP(=O)(OC)OC(Br)C(Cl)(Cl)Br (stereo not given) [Naled] | 31.8 | 46.5 ± 3.1 | 8.61 ± 7.6 | -3.08 ± 5.3 | -89.9 ± 2.4 | 307 ± 93 | 0.93 ± 0.12 |
